Laboratory results from PubChem BioAssay AID1549 (Sanford-Burnham Center for Chemical Genomics, 2009).
Active and inactive are the calls of the source. How the calls were made is not given here.

These compounds were tested against Influenza A virus M2 proton channel (A/TW/4845/1999 H1N1) (assay: NMR binding screen, influenza A virus M2 proton channel, Kd (AID 1549)). Conditions: M2 protein.

Structure (SMILES)	Kd
O=C(Nc1ccccc1N1CCCC1)c1cccnc1	> 4 mM (inactive)
Cc1cc(C)n2nc(Cc3ccccc3)nc2n1	> 4 mM (inactive)
Cn1cnnc1SCCCNC(=O)Nc1ncccn1	> 4 mM (inactive)
CNCc1ccccc1	> 4 mM (inactive)
Nc1ccc(OC(F)(F)F)cc1	> 4 mM (inactive)
CP(C)(=O)c1cccc(C(=O)O)c1	> 4 mM (inactive)
c1ccc(-c2csc(Nc3cccnc3)n2)nc1	> 4 mM (inactive)
CC(=O)N1CCN(c2ccc(O)cc2)CC1	> 4 mM (inactive)
C[N+](C)(C)CC(O)CC(=O)O (stereo not drawn)	> 4 mM (inactive)
CC(=O)Nc1nc2c(s1)C(=O)NCCC2	> 4 mM (inactive)
O=[N+]([O-])c1cccc(-c2nnco2)c1	> 4 mM (inactive)
CC(=O)OC1CCC23C(=O)OC45CCC(C6=CC(=O)OC6)C4(C)CCC2C5CCC3(O)C1 (stereo not drawn)	> 4 mM (inactive)
NC(=O)c1ccc(NC(=O)c2ccco2)cc1	> 4 mM (inactive)
O=C(COc1ccccc1)N1CCc2ccccc2C1	> 4 mM (inactive)
COc1ccc(NC(=O)N2CCCCC2)cc1	> 4 mM (inactive)
COc1ccc2c(c1)[nH]c1c(C)nccc12	> 4 mM (inactive)
CC(=O)NCc1nc2ccccc2[nH]1	> 4 mM (inactive)
Nc1nnc(Cc2ccc(Cl)cc2)s1	> 4 mM (inactive)
S=C(CN1CCCC1=S)N1CCOCC1	> 4 mM (inactive)
COc1ccc2c(c1)[n+](=O)c(C(C)=O)c(C)n2[O-]	> 4 mM (inactive)
CC(C)n1c(-c2ccncc2)n[nH]c1=S	> 4 mM (inactive)
O=C1NC(=O)C(C(C[N+](=O)[O-])c2ccc(O)cc2)C(=O)N1 (stereo not drawn)	> 4 mM (inactive)
CCn1nnc2c(NCc3ccccn3)ncnc21	> 4 mM (inactive)
Cc1cc(NC(=O)Cc2c(F)cccc2Cl)no1	> 4 mM (inactive)
CC(O)C(=O)N/N=C/c1ccccc1 (stereo not drawn)	> 4 mM (inactive)

Structure (SMILES)	Kd
O=C(Nc1cnccn1)c1ccncc1	> 4 mM (inactive)
CC(=O)O[C@H]1C[C@@H](OC(C)=O)C(C)(C)C2CC(=O)[C@]3(C)C(CC[C@@]4(C)[C@H](c5ccoc5)OC(=O)[C@H]5O[C@]543)[C@]21C (stereo partly drawn)	> 4 mM (inactive)
CCC(=O)Nc1cc(C(C)C)c(O)cc1C	> 4 mM (inactive)
Cc1oc2nc3c(c(=O)[nH]c(=O)n3C)n2c1C	> 4 mM (inactive)
O=C(Nc1ccc(N2CCOCC2)cc1)c1cnsn1	> 4 mM (inactive)
Cn1cc(C(=O)N/N=C/c2ccccc2)ccc1=O	> 4 mM (inactive)
CN1CCC(N(C)C2CCN(C)CC2)CC1	> 4 mM (inactive)
OCC1CCCC1O (stereo not drawn)	> 4 mM (inactive)
O=C(Nc1cccnc1)c1ccc(Br)s1	> 4 mM (inactive)
O=C(NCc1cccs1)c1ccncc1	> 4 mM (inactive)
Nc1ccc(CN2CCS(=O)(=O)CC2)cc1	> 4 mM (inactive)
NC(=O)CC(=O)NC12CC3CC(CC(C3)C1)C2	> 4 mM (inactive)
Brc1ccc(-c2nc(-c3ccncc3)no2)o1	> 4 mM (inactive)
COc1c2c(cc3c1OCO3)CCN(C)C2	> 4 mM (inactive)
S=C1NC(=S)NC(c2ccc3c(c2)OCO3)N1	> 4 mM (inactive)
c1ccc2c(c1)nnn2C1CCNCC1	> 4 mM (inactive)
OC1(c2ccc(Cl)cc2)CCNCC1	> 4 mM (inactive)
COc1ccc(C2=CC(=O)C=CC2=O)cc1	> 4 mM (inactive)
CCCC(=O)N1CCSCC1	> 4 mM (inactive)
Cc1sc(N)c(C(N)=O)c1C	> 4 mM (inactive)
COc1ccc(/C=C2\NC(=S)N(C)C2=O)cc1O	> 4 mM (inactive)
COc1ccc2c(c1)OCC(Cc1ccc(OC)c(OC(C)=O)c1)C2=O (stereo not drawn)	> 4 mM (inactive)
CNC(=O)C(=O)NCc1ccc(C)cc1	> 4 mM (inactive)
CCOC(=O)c1[nH]c(C)cc1C	> 4 mM (inactive)
Cc1nn(-c2ccccc2C(=O)O)c(=O)c2ccccc12	> 4 mM (inactive)

Structure (SMILES)	Kd
COC(=O)c1cccc2cc[nH]c12	> 4 mM (inactive)
Oc1ccc([C@H]2Oc3cc(O)cc(O)c3C[C@H]2O)cc1	> 4 mM (inactive)
O=C(O)C1COc2ccccc2C1 (stereo not drawn)	> 4 mM (inactive)
S=c1[nH]nc(-c2cccnc2)n1C1CCCCC1	> 4 mM (inactive)
O=C(NCCO)NC(=S)c1ccccc1	> 4 mM (inactive)
Nc1c(S(=O)(=O)c2ccccc2)csc1C(=O)O	> 4 mM (inactive)
NC(=O)c1ccc(N=Cc2ccc[nH]2)cc1	> 4 mM (inactive)
COc1ccc(/C=C2/N=C(N)SC2=O)cc1	> 4 mM (inactive)
Nc1nnc(SCc2ccc(F)cc2)s1	> 4 mM (inactive)
O=C1NC(=O)C(C2SC(=O)NC2=O)S1 (stereo not drawn)	> 4 mM (inactive)
c1ccc(-c2csc3ncn4nnnc4c23)cc1	> 4 mM (inactive)
CC1(C)SCC(C(=O)O)N1C=O (stereo not drawn)	> 4 mM (inactive)
COc1cc(O)cc(/C=C/c2ccccc2)c1	> 4 mM (inactive)
Cc1ccc(N2C(=O)CC(=O)NC2=O)cc1	> 4 mM (inactive)
NC(=O)CCN1C(=O)c2ccccc2C1=O	> 4 mM (inactive)
S=c1nc(C2CC2)[nH]c2ccccc12	> 4 mM (inactive)
O=C(c1cnsn1)N1CCN(c2ccccn2)CC1	> 4 mM (inactive)
CC1(C)C(=O)C=C[C@@]2(C)C1C[C@@H](O)[C@]1(C)C2CC[C@@]2(C)[C@H](c3ccoc3)OC(=O)[C@H]3O[C@]321 (stereo partly drawn)	> 4 mM (inactive)
CN1CCC(NC(=O)c2cnccn2)CC1	> 4 mM (inactive)
Cn1ncc(C(=O)O)c1-c1ccccc1	> 4 mM (inactive)
O=C1c2ccc(F)cc2C(=O)N1CO	> 4 mM (inactive)
Nc1ccccc1N1CCOCC1	> 4 mM (inactive)
Cc1noc(C)c1C(=O)Nc1ccccc1-c1ccccc1	> 4 mM (inactive)
O=C1Nc2ccc(S(=O)(=O)NCCO)c3cccc1c23	> 4 mM (inactive)
Nc1cc(F)ccc1-n1ccnc1	> 4 mM (inactive)

Structure (SMILES)	Kd
NC(=O)C1CCN(C(=O)CN2CCc3ccccc32)CC1	> 4 mM (inactive)
O=c1cnnc(N2CCCCC2)[nH]1	> 4 mM (inactive)
NC12CC3CC(C1)CC(C(=O)O)(C3)C2	> 4 mM (inactive)
O=c1nc(NCc2ccco2)sc2ncccc12	> 4 mM (inactive)
O=C(Nc1ccc(Cl)cc1)N1CCCC1	> 4 mM (inactive)
NS(=O)(=O)c1ccc(NC(=O)c2ccccc2F)cc1	> 4 mM (inactive)
COCc1cc(Cl)nc(-c2csc(C)n2)n1	> 4 mM (inactive)
COC(=O)[C@]1(C)CC[C@]2(C)CC[C@]3(C)C4=CCc5c(cc(O)c(O)c5C)[C@]4(C)CC[C@@]3(C)C2C1 (stereo partly drawn)	> 4 mM (inactive)
CN1C(=O)C2CC=C(Cl)CC2C1=O (stereo not drawn)	> 4 mM (inactive)
CC(=O)c1cccc(NS(=O)(=O)N2CCCCC2)c1	> 4 mM (inactive)
Cn1c(=O)c2c(n(C)c1=O)=NC1(CCCCC1)N=2	> 4 mM (inactive)
O=c1[nH]nc(Cc2ccccn2)c2ccccc12	> 4 mM (inactive)
COc1cc(C)nc(N(CCO)CCO)n1	> 4 mM (inactive)
NC(C(=O)O)C(O)C(=O)O (stereo not drawn)	> 4 mM (inactive)
O=C1CC(C(=O)O)c2ccccc21 (stereo not drawn)	> 4 mM (inactive)
Cc1nnc(SCc2ccon2)n1-c1ccccc1	> 4 mM (inactive)
CCn1c(-c2c[nH]c3ccccc23)n[nH]c1=S	> 4 mM (inactive)
NC(=O)C1CCN(C(=S)c2cccs2)CC1	> 4 mM (inactive)
OCc1cc(-c2cccs2)on1	> 4 mM (inactive)
O=C(CCc1n[nH]c(=O)[nH]c1=O)NCc1ccccc1	> 4 mM (inactive)
CC(=O)OCC[C@H](C)CCC=C(C)C	> 4 mM (inactive)
Cc1cc(=O)c2c(O)c(C)c(O)cc2o1	> 4 mM (inactive)
COC(=O)[C@H]1[C@H]2C[C@H]3c4[nH]c5ccccc5c4CCN3C[C@H]2CC[C@@H]1O	> 4 mM (inactive)
COC(=O)Cc1cccc(OC)c1	> 4 mM (inactive)
O=C(Nc1ccccc1C(F)(F)F)c1cnccn1	> 4 mM (inactive)

Structure (SMILES)	Kd
CN1CCC=C(C(=O)O)C1	> 4 mM (inactive)
CNC(=O)Nc1ccc(C(=O)NC)cc1	> 4 mM (inactive)
CC(=O)O[C@@H]1c2c(ccc3ccc(=O)oc23)OC(C)(C)[C@@H]1OC(=O)CC(C)C	> 4 mM (inactive)
Nc1c(/C=C2\C=Nc3ccccc32)c(=O)nc2scnn12	> 4 mM (inactive)
Cc1nc2ccc(NC(=O)N3CCOCC3)cc2s1	> 4 mM (inactive)
CC(=O)N1CCn2c3c(c(=O)c4cc(C)ccc42)CCC31 (stereo not drawn)	> 4 mM (inactive)
Nc1nncn1C(=O)c1ccccc1Cl	> 4 mM (inactive)
COC(CC(=O)O)c1nc2ccccc2s1 (stereo not drawn)	> 4 mM (inactive)
CC(=O)O[C@@H]1CC2C(C)(CC[C@H](O)C2(C)C)C2CC[C@]3(C)C(=CC(=O)O[C@H]3c3ccoc3)C21C (stereo partly drawn)	> 4 mM (inactive)
C/C=C(\C)C(=O)O[C@@H]1c2c(ccc3ccc(=O)oc23)OC(C)(C)[C@@H]1OC(C)=O	> 4 mM (inactive)
Cn1cc(Cl)c(C(=O)Nc2ccc(F)cc2F)n1	> 4 mM (inactive)
OCc1ccc(N2CCOCC2)nc1	> 4 mM (inactive)
CC(=O)Nc1ccc2c(C)cc(=O)[nH]c2c1	> 4 mM (inactive)
Cc1noc(-c2ccccc2)c1C(=O)O	> 4 mM (inactive)
O=c1nc(N2CCCCC2)nc2n1CCO2	> 4 mM (inactive)
Cc1cc(C(=O)Nc2ccon2)cs1	> 4 mM (inactive)
COc1c(O)cc2c(c1O)[C@H]1O[C@H](CO)[C@@H](O)[C@H](O)[C@@H]1OC2=O	> 4 mM (inactive)
CCc1c(C(=O)Nc2ccncc2)csc1C	> 4 mM (inactive)
CCC(=O)NC(=S)Nc1ccc(C(N)=O)cc1	> 4 mM (inactive)
Cc1nc2cc(Cl)ccc2n1CCO	> 4 mM (inactive)
O=C(Cc1cccs1)N1CCOCC1	> 4 mM (inactive)
O=C(C1CCNCC1)N1CCCCCC1	> 4 mM (inactive)
CCN1C(=O)N(CO)C2C1N(C)C(=O)N2C (stereo not drawn)	> 4 mM (inactive)
